From US20030133920A1, “Koji molds for preparing cholesterol lowering products” (priority 2000, published 2003)

What was measured:
[1] = test system: cholesterol synthesis in human hepatic T9A4 cells; assay: Inhibition test for cholesterol synthesis, 14C-acetate incorporation into cholesterol; assay type: cell-based; conditions: 1 mM 14C-acetate, 20 h, liquid fermentation extracts, extract concentration in the medium per row (37-70 μg/ml; lovastatin 0.5 μg/ml)
Procedure: (§1) The human hepatic T9A4 cells were grown in the serum-free LCM medium (Biofluids, Rockville, Md., USA) under 3.5% CO2 at 37° C. The cells were seeded into 24 well plates and incubated at confluency with 1 mM ^14C-acetate (1 mCi/mmol, Amersham) for 20 h in the absence (control) or in the presence of the fermented extract fractions. Cells were also incubated with 1.17 mM ^14C-mevalonate (0.85 mCi/mmol, Amersham) for 20 h in order to evaluate whether the compounds stemming from the microorganisms to be tested have an inhibitory effect downstream the HMGCoA/Mevalonate conversion step.
(§2) Lipid extraction was performed twice by incubation with hexane:isopropanol (3:2) for 30 min at room temperature. The combined extracts were dried under N2, redissolved in hexane and subjected to high performance thin layer chromatography (Merck, Darmstadt, Germany) in a solvent mixture of hexane:diethyl ether:acetic acid (75:25:1). The neo-synthesis of cholesterol was determined by measuring the ^14C-acetate incorporation into the cholesterol with an instant imager (Camberra Packard, Zurich, Switzerland) and expressed as percent of the control.

[2] = test system: cholesterol synthesis in human hepatic T9A4 cells; assay: Inhibition test for cholesterol synthesis in presence of 14C-mevalonate (downstream of HMGCoA/mevalonate step); assay type: cell-based
Procedure: as §1, §2

Question: With `CC[C@H](C)C(=O)O[C@H]1C[C@@H](C)C=C2C=C[C@H](C)[C@H](CC[C@@H]3C[C@@H](O)CC(=O)O3)[C@H]21` [LOVASTATIN, lovastatin] as the molecule, how does the inhibition at 0.5 µg/mL [1] read?
Answer: 56%

Question: And the “inhibitory effect on cholesterol biosynthesis (in words)” value ([2]; T9A4 cells, in presence of 14C-mevalonate)?
Answer: does not inhibit cholesterol biosynthesis

Question: What about the inhibition at 0.5 µg/mL ([2]; human hepatic T9A4 cells, 1.17 mM 14C-mevalonate, 20 h, extract concentration in the medium per row (37-50 μg/ml; lovastatin 0.5 μg/ml)) of the same molecule?
Answer: 0%
